The values below come from PMC11858516, “Promiscuity in Polyphenol–Protein Interactions—Monitoring Protein Conformational Change upon Polyphenol–Protein Binding by Nano-Differential Fluorimetry (Nano-DSF)” (Molecules, 2025).

Type in all cases: binding
Assay [1] concerns the target T1, Casein.
T1 construct: gene CSN1S1
Put plainly: nano-DSF F350/F330 titration, […] fit. Conditions: 37 °C, phosphate buffer pH 6.8, 1:1 stoichiometry assumed.

For assay [2], the target named is T2, bovine serum albumin (BSA) (Bos taurus, UniProt P02769).
T2 construct: gene ALB
T2 sequence (P02769 25-607): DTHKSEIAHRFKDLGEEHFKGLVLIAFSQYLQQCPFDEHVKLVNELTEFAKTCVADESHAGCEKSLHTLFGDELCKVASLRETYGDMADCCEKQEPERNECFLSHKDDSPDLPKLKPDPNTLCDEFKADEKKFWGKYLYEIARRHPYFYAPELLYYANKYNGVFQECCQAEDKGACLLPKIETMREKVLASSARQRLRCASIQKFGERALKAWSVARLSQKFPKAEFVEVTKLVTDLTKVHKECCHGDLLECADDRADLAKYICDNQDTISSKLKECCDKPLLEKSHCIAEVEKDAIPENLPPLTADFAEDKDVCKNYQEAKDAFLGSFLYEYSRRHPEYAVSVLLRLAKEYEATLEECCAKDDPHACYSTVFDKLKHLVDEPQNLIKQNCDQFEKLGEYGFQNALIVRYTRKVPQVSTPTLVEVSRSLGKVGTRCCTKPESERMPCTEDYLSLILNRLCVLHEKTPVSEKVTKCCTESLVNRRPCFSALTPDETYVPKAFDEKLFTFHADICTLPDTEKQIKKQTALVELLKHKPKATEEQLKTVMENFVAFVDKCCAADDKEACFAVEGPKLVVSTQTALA
Put plainly: nano-DSF F350/F330 titration, […] fit. Conditions: read-out: Ka [M^-1] (converted).

Assay [3] deals with T3, Ovalbumin (OVA) (Gallus gallus, UniProt P01012).
T3 construct: gene SERPINB14
T3 sequence (P01012 2-386): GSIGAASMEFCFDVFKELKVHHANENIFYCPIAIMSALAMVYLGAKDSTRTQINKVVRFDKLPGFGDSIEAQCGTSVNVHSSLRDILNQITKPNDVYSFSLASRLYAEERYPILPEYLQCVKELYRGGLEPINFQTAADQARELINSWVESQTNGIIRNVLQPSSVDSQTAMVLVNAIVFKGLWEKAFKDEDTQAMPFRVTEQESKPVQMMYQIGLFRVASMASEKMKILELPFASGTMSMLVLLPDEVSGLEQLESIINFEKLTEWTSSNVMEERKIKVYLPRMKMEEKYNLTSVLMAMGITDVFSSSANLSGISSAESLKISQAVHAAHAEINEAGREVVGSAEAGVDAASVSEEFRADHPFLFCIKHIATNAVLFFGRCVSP
Nature of the assay: nano-DSF F350/F330 ratio. The note with it: 1000 µM; phosphate buffer pH 6.8; 5 µM protein. The source says: nano-DSF F350/F330 ratio on Ovalbumin (OVA)

In assay [4] the target is T2, bovine serum albumin (BSA). Nature of the assay: nano-DSF F350/F330 ratio. The note with it: 1000 µM; phosphate buffer pH 6.8; 5 µM protein. The text has this:
nano-DSF F350/F330 ratio on bovine serum albumin (BSA)

Regarding `Oc1cc(O)c2c(c1)O[C@H](c1ccc(O)c(O)c1)[C@H](O)C2` [Epicatechin], the “Ka” value in assay [1] (µM column is the reciprocal of Ka, the M^-1 cell is misprinted (7 1616)) was determined as 139.6 µM.

In the case of `O=C(OC[C@H]1O[C@@H](OC(=O)c2cc(O)c(O)c(O)c2)[C@H](OC(=O)c2cc(O)c(O)c(O)c2)[C@@H](OC(=O)c2cc(O)c(O)c(O)c2)[C@@H]1OC(=O)c1cc(O)c(O)c(O)c1)c1cc(O)c(O)c(O)c1` [β-PGG], the Kd in assay [2] was 118 µM.

For the compound `O=C(/C=C/c1ccc(O)c(O)c1)O[C@@H]1C[C@](O)(C(=O)O)C[C@@H](O)[C@H]1O` [5-CQA], the “Ka [M^-1]” value in assay [1] is on record as 21 450. Also, the F350/F330 fluorescence ratio in assay [3] was determined as 1.02.

`O=C(/C=C/c1ccc(O)c(O)c1)O[C@H]1[C@H](O)C[C@](O)(C(=O)O)C[C@H]1OC(=O)/C=C/c1ccc(O)c(O)c1` [3,4-diCQA]: in assay [1], the “Ka [M^-1]” value is given as 41 271. In addition, the Kd in assay [2] is 18 µM.

As to `O=C(OC[C@H]1O[C@H](OC(=O)c2cc(O)c(O)c(O)c2)[C@H](OC(=O)c2cc(O)c(O)c(O)c2)[C@@H](OC(=O)c2cc(O)c(O)c(O)c2)[C@@H]1OC(=O)c1cc(O)c(O)c(O)c1)c1cc(O)c(O)c(O)c1` [α-PGG], the Kd in assay [2] is 89.3 µM.

As for `O=C(O[C@@H]1Cc2c(O)cc(O)cc2O[C@@H]1c1cc(O)c(O)c(O)c1)c1cc(O)c(O)c(O)c1` [EGCG], the values for the F350/F330 fluorescence ratio in assay [4] and in assay [3] were 1.57 and 1.25, respectively.
